Measurements published in patent US10189773B2, “In-vivo gelling pharmaceutical pre-formulation” (MEDICUS BIOSCIENCES, LLC, priority 2010, dated 2019).

Assay: Saturated solution of DDP or DCP in phosphate and borate buffers
Type: physicochemical
Conditions: 25° C.
Excerpt: Samples containing DDP or DCP were protected from light as a precaution.

Row | Structure (SMILES) | final concentration of saturated solution (borate buffer (pH of 7.94)) [mg/mL] | final concentration of saturated solution (phosphate buffer) [mg/mL]
1 | N.N.[Cl][Pt][Cl] [DDP, cisdiamminedichloroplatinum(II)] | 1.3 | 1.3
2 | N.N.O=C([O-])C1(C(=O)[O-])CCC1.[Pt+2] [DCP, cis-Diammine(1,1-cyclobutanedicarboxylato)platinum(II)] | 15.6 | 14.7
